Legend:
[1] = target: GABA-A receptor; alpha-5/beta-3/gamma-2 (Homo sapiens) (UniProt P18507+P28472+P31644); test: Agonist activity at human recombinant GABAA alpha-5-beta-3-gamma-2 receptor expressed in Xenopus oocytes at 1 to 10 uM by patch clamp technique; assay type: functional, cell-based; conditions: Oocyte
[2] = target: GABA-A receptor; alpha-3/beta-3/gamma-2 (Homo sapiens) (UniProt P18507+P28472+P34903); test: Agonist activity at human recombinant GABAA alpha-3-beta-3-gamma-2 receptor expressed in Xenopus oocytes at 1 to 10 uM by patch clamp technique; assay type: functional, cell-based; conditions: Oocyte
[3] = target: GABA-A receptor; alpha-1/beta-3/gamma-2 (Homo sapiens) (UniProt P14867+P18507+P28472); test: Agonist activity at human recombinant GABAA alpha-1-beta-3-gamma-2 receptor expressed in Xenopus oocytes at 1 to 10 uM by patch clamp technique; assay type: functional, cell-based; conditions: Oocyte
[4] = target: T1, GABA A receptor alpha-4/beta-3/gamma-2 (Homo sapiens, UniProt P18507+P28472+P48169); test: Displacement of [3H]flunitrazepam from human recombinant GABAA alpha-4-beta-3-gamma-2 receptor expressed in HEK cells by liquid scintillation counting; assay type: cell-based, HEK293
T1 sequence (P48169 whole entry, one chain of several): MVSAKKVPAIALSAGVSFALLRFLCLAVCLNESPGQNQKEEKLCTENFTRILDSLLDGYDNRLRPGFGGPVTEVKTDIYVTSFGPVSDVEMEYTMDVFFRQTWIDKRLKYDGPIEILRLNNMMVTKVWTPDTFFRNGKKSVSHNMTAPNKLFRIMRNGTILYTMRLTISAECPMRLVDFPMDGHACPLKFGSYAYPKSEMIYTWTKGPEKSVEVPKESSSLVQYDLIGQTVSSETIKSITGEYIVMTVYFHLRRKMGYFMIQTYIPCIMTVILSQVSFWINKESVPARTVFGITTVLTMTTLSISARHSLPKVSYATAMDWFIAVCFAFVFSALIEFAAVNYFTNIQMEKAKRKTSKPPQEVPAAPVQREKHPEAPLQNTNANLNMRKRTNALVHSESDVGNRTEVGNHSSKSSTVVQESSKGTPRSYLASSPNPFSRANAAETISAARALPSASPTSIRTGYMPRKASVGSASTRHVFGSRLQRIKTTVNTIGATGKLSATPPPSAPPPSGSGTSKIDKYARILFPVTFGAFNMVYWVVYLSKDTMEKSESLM

[5] = target: T1, GABA A receptor alpha-4/beta-3/gamma-2; test: Agonist activity at human recombinant GABAA alpha-4-beta-3-gamma-2 receptor expressed in Xenopus oocytes at 1 to 10 uM by patch clamp technique; assay type: functional, cell-based; conditions: Oocyte
[6] = target: GABA-A receptor; alpha-2/beta-3/gamma-2 (Homo sapiens) (UniProt P18507+P28472+P47869); test: Agonist activity at human recombinant GABAA alpha-2-beta-3-gamma-2 receptor expressed in Xenopus oocytes at 1 to 10 uM by patch clamp technique; assay type: functional, cell-based; conditions: Oocyte
[7] = target: GABA-A receptor; alpha-6/beta-3/gamma-2 (Homo sapiens, UniProt P18507+P28472+Q16445); test: Displacement of [3H]flunitrazepam from human recombinant GABAA alpha-6-beta-3-gamma-2 receptor expressed in HEK cells by liquid scintillation counting; assay type: cell-based, HEK293
Chain of GABA-A receptor; alpha-6/beta-3/gamma-2 (Q16445 whole entry, one chain of several): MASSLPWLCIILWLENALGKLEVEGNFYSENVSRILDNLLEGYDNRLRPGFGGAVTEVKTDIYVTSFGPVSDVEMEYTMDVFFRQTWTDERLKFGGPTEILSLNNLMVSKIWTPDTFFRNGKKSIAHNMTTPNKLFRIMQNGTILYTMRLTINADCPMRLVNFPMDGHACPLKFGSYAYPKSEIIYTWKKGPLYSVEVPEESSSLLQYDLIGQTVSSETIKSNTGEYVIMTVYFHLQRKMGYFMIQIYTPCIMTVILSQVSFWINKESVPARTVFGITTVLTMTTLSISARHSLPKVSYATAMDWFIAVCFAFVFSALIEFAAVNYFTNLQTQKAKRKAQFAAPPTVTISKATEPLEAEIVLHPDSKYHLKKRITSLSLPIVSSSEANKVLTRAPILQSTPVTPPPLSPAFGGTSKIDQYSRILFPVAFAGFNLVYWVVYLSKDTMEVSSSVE

[8] = target: T2, GABA-A receptor; alpha-5/beta-3/gamma-2 (Homo sapiens, UniProt P18507+P28472+P31644); test: Displacement of [3H]flunitrazepam from human recombinant GABAA alpha-5-beta-3-gamma-2 receptor expressed in HEK cells by liquid scintillation counting; assay type: cell-based, HEK293
T2 sequence (P18507 whole entry): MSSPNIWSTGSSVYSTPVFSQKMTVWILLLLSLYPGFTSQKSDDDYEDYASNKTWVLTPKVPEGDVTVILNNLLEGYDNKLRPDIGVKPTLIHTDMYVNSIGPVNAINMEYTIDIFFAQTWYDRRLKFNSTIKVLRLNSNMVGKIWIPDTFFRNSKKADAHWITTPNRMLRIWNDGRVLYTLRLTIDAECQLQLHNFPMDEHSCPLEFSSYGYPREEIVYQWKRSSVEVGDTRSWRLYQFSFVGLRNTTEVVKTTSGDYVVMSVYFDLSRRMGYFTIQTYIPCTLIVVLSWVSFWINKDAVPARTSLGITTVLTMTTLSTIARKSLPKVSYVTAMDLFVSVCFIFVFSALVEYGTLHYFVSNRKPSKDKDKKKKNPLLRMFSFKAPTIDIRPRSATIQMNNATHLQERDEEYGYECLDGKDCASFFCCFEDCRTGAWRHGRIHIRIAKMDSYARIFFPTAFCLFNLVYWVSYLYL
T2 sequence (P28472 whole entry): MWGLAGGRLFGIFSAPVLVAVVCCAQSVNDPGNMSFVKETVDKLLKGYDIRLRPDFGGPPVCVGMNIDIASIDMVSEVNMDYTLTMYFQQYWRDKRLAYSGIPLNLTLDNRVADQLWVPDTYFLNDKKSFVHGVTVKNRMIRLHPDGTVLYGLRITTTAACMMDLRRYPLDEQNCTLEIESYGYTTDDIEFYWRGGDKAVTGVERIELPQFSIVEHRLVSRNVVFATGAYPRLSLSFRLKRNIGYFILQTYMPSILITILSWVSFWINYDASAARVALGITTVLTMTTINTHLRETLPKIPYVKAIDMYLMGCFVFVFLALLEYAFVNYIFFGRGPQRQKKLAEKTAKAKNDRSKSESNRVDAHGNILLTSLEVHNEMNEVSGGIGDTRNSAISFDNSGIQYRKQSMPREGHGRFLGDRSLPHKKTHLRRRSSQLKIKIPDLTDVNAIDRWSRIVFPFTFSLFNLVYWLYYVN
T2 sequence (P31644 whole entry): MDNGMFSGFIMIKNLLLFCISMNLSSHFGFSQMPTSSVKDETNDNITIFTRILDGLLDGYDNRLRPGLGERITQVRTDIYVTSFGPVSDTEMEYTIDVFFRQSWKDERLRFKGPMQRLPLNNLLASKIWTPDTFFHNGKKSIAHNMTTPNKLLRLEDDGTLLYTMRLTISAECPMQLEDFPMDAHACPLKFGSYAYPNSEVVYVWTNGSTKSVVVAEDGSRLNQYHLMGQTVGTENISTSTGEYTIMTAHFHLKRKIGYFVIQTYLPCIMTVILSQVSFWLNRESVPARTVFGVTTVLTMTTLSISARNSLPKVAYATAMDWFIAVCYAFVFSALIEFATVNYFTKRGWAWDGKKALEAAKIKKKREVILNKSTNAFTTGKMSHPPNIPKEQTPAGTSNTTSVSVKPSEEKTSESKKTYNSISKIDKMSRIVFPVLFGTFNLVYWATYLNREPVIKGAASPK

[9] = target: T3, GABA-A receptor; alpha-3/beta-3/gamma-2 (Homo sapiens, UniProt P18507+P28472+P34903); test: Displacement of [3H]flunitrazepam from human recombinant GABAA alpha-3-beta-3-gamma-2 receptor expressed in HEK cells by liquid scintillation counting; assay type: cell-based, HEK293
T3 sequence (P18507 whole entry): T2 sequence (P18507 whole entry)
T3 sequence (P28472 whole entry): T2 sequence (P28472 whole entry)
T3 sequence (P34903 whole entry): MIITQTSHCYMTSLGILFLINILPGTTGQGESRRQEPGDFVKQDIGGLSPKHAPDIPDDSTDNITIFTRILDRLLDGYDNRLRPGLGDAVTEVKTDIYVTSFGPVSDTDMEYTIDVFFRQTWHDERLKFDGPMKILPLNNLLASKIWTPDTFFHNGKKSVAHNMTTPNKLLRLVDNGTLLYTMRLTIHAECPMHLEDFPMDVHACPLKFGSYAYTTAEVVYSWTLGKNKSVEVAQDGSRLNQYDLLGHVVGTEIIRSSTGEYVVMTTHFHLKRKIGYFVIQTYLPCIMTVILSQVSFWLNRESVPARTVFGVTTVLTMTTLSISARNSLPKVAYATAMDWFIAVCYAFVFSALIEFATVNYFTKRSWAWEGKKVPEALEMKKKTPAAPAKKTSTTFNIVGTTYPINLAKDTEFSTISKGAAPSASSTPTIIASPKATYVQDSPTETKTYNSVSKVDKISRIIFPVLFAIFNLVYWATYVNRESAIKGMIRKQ

[10] = target: T4, GABA-A receptor; alpha-2/beta-3/gamma-2 (Homo sapiens, UniProt P18507+P28472+P47869); test: Displacement of [3H]flunitrazepam from human recombinant GABAA alpha-2-beta-3-gamma-2 receptor expressed in HEK cells by liquid scintillation counting; assay type: cell-based, HEK293
T4 sequence (P18507 whole entry): T2 sequence (P18507 whole entry)
T4 sequence (P28472 whole entry): T2 sequence (P28472 whole entry)
T4 sequence (P47869 whole entry): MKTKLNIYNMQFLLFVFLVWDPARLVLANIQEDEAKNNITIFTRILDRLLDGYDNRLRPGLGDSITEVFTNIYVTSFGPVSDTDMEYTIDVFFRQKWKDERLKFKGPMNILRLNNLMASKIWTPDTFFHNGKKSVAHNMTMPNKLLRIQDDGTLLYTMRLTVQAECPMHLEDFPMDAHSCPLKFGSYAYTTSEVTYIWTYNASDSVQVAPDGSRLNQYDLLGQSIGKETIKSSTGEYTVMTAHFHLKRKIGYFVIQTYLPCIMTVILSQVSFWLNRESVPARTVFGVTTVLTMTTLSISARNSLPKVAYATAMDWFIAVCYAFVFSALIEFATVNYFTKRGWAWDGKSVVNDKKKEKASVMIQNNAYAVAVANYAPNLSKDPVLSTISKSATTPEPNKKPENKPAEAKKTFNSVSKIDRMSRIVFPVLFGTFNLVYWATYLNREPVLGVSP

[11] = target: T5, GABA-A receptor; alpha-1/beta-3/gamma-2 (Homo sapiens, UniProt P14867+P18507+P28472); test: Displacement of [3H]flunitrazepam from human recombinant GABAA alpha-1-beta-3-gamma-2 receptor expressed in HEK cells by liquid scintillation counting; assay type: cell-based, HEK293
T5 sequence (P14867 whole entry): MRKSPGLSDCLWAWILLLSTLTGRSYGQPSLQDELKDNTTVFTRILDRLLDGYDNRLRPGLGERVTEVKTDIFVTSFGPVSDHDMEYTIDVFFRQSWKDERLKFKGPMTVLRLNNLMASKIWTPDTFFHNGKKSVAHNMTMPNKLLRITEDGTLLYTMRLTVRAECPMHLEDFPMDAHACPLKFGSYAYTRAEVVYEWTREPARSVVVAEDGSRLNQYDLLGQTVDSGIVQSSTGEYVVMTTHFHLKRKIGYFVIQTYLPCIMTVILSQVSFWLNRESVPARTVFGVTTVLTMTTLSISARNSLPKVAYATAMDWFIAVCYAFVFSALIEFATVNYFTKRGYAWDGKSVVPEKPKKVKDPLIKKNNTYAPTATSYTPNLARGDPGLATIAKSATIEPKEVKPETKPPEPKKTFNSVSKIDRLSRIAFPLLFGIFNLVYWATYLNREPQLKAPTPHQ
T5 sequence (P18507 whole entry): T2 sequence (P18507 whole entry)
T5 sequence (P28472 whole entry): T2 sequence (P28472 whole entry)

| SMILES | Activity [1] [%] | Activity [2] [%] | Activity [3] [%] | Ki ([4]; read-out: Ki) [nM] | Activity [5] [%] | Activity [6] [%] | Ki [7] [nM] | Ki ([4]; hek293) | Ki [8] [nM] | Ki [9] [nM] | Ki [10] [nM] | Ki [11] [nM] |
| --- | --- | --- | --- | --- | --- | --- | --- | --- | --- | --- | --- | --- |
| CC(C)(C)OC(=O)c1cc2c3ccccc3nc-2c[nH]1 | 88 | 108 | 96 | 1000 | 107 | 99 |  |  |  |  |  |  |
| CCOC(=O)c1ncn2c1CN(C)C(=O)c1cc(F)ccc1-2 | 96 | 118 | 99 |  |  |  |  |  |  |  |  |  |
| CC[C@H](C)OC(=O)c1cc2c(cn1)[nH]c1ccccc12 |  |  |  |  |  |  | > 2000 | Not Active |  |  |  |  |
| CC(C)CCOc1cc2c3ccccc3nc-2c[nH]1 |  |  |  |  |  |  | 10000 |  | 3000 | 3000 | 3000 |  |
| CCOC(=O)c1ncc2[nH]c3cccc(OC(C)C)c3c2c1C | 96 |  |  |  |  |  |  |  |  |  |  |  |
| C[C@@H](OC(=O)c1cc2c(cn1)[nH]c1ccccc12)C(F)(F)F |  |  |  | > 3000 |  |  | > 2000 |  | 1850 | 453 | 343 | 27 |
| CC(C)(C)OC(=O)c1ccc2[nH]c3ccc(C#Cc4ccc5[nH]c6ccc(C(=O)OC(C)(C)C)cc6c5c4)cc3c2c1 |  |  |  |  |  |  | > 4000 |  | > 300 | 100 | 124 | 30 |
| C[Si](C)(C)C#Cc1ccc2[nH]c3cnc(C(=O)OCC(F)(F)F)cc3c2c1 |  |  |  | 200 |  |  | > 3000 |  | 1440 | 88 | 59 | 17 |
| O=C(OCC(F)(F)F)c1cc2c(cn1)[nH]c1ccccc12 |  |  |  | > 500 |  |  | > 2000 |  | 126 | 41.7 | 24.5 | 3 |
| CC(C)(C)OC(=O)c1cc2c(cn1)[nH]c1ccc(I)cc12 |  |  |  | > 4000 |  |  | > 4000 |  | 65.3 | 123 | 44.9 | 14.4 |
| CCCC(=O)c1cc2c(cn1)[nH]c1ccc(F)cc12 |  |  |  |  |  |  | > 2500 | Not Active | 254 | 40 | 27 | 3.7 |
| CCC(OC(=O)c1cc2c(cn1)[nH]c1ccccc12)C(F)(F)F (stereo unspecified) |  |  |  |  |  |  | > 2000 | Not Active |  |  |  |  |
| C[C@H](OC(=O)c1cc2c(cn1)[nH]c1ccccc12)C(F)(F)F |  |  |  | > 3000 |  |  | > 2000 |  | 1850 | 172 | 931 | 90 |
| CCC(C)OC(=O)c1cc2c(cn1)[nH]c1ccccc12 (stereo unspecified) |  |  |  |  |  |  | > 2000 | Not Active | 216 | 116 | 60 | 18 |
| CC(C)(C)OC(=O)c1cc2c(cn1)[nH]c1ccc(C#Cc3ccc4[nH]c5cnc(C(=O)OC(C)(C)C)cc5c4c3)cc12 |  |  |  | > 300 |  |  | > 4000 |  | > 300 | 100 | 124 | 30 |

From ChEMBL document CHEMBL1268934, “Design, synthesis, and subtype selectivity of 3,6-disubstituted β-carbolines at Bz/GABA(A)ergic receptors. SAR and studies directed toward agents for treatment of alcohol abuse” (Bioorg Med Chem, 2010)
